Test results from PubChem BioAssay AID1963449 (Molecular Pharmacology Branch, DTP, NCI, 2024).

Test system: 596521-263-R-J1-PDC complex spheroid growth
Test: Anticancer human tumor 596521-263-R-J1-PDC patient-derived soft tissue sarcoma cell line growth inhibition [Asc]
Details: for IC50: curve of first compound; for viability, T/C: stronger effect = lower value
Description: Multicellular complex tumor spheroid response to apoptosis pathway targeting inhibitors Alrizomadlin, Pelcitoclax, and Dasminapant in combination with a variety of drugs and investigational agents in selected tumor cell lines
The MDM2 inhibitor alrizomadlin, the Bcl-2/Bcl-xL inhibitor pelcitoclax, and the IAPs inhibitor dasminapant were evaluated both individually and in combination with standard of care and investigational anticancer small molecules within a complex spheroid model of solid tumors. . Complex spheroids include a stromal component modeled by human endothelial cells (HUVEC) and fibroblasts modeled by human mesenchymal stem cells (MSCs). The concentration ranges selected for each drug and investigational agent were based upon clinically achievable concentrations if the clinical Cmax of the agent was known.
Compounds. The drugs and investigational agents: alrizomadlin (APG-115; NSC831270), pelcitoclax (APG-1252; NSC835773), dasminapant (APG-1387;NSC834197), TAK-243 (NSC785004), copanlisib (NSC809693), olaparib (NSC753686), talazoparib (NSC767125), cobimetinib (NSC 768068), eltanexor (KPT-8602, NSC 794443), abemaciclib (NSC 768073), sotorasib (NSC818433), adagrasib (NSC 831453), MRTX-1133 (NSC 836407), Iadademestat (ORY1001, NSC 806812), and RMC-4630 (NSC839698), were obtained from the NCI Developmental Therapeutics Program Chemical Repository. The FDA-approved anticancer drug set is available from the Developmental Therapeutics Program at https://dtp.cancer.gov/organization/dscb/obtaining/available plates.htm. […] The stock solutions were prepared in dimethyl sulfoxide (DMSO, Sigma-Aldrich, St. Louis, MO, cat. D2650) at 800-fold the tested concentration and stored at -70 degrees C prior to their use. All drugs and investigational agents were tested over a range starting from a high concentration at or near the clinical Cmax and decreasing in half-log increments. If the clinical Cmax for an agent had not been determined, the highest concentration tested was 10 microM.
The patient-derived cancer (PDC) cell lines include five colon adenocarcinomas: 186277-243-T-J2-PDC, 616215-338-R-J1-PDC, 439559-082-T-J2-PDC, 463943-066-T-J2-PDC, and 519858-162-T-J1-PDC; three pancreatic carcinomas: 323965-272-R-J2-PDC, 521955-158-R6-J3-PDC, and 521955-158-R2-J5-PDC; two uterine sarcomas: 327498-152-R-J2-PDC and 993429-296-R-J1-PDC; two rhabdomyosarcomas: 755483-174-R-J1-PDC and 772245-204-R-J1-PDC; two soft tissue sarcomas: 126254-015-R-J1-PDC and 494315-158-R-J1-PDC; two malignant fibrous histiocytomas: 317291-083-R-J1-PDC and 596521-263-R-J1-PDC; two breast carcinomas: 171881-019-R-J1-PDC and 885512-296-R-J2-PDC; and one ovarian carcinoma: 6556581-035-R-J-PDC were obtained from the NCI PDMR, (https://pdmr.cancer.gov). The established cell lines HSSY-2 synovial sarcoma (RRID:CVCL 8719), SYO-1 synovial sarcoma (RRID:CVCL_7146), MPNST malignant peripheral neural sheath tumor were obtained from the Sloan Kettering Institute. The following established cell lines were purchased from the American Type Culture Collection (ATCC, Manassas, VA), Sor the received from the NCI repository:, PANC-1 pancreatic carcinoma (CRL-1469, RRID:CVCL_0480), OVCAR-5 ovarian carcinoma (RRID:CVCL_1628), OVCAR-8 ovarian carcinoma (RRID:CVCL_1629), , MCF-7 breast carcinoma (CRL-12584, RRID:CVCL_0031), MDA-MB-231 breast carcinoma (CRL-12532, RRID:CVCL_0062), NCI-H1876 small cell lung carcinoma (CRL-5902, RRID:CVCL_1503), NCI-H510A small cell lung carcinoma (HTB-184, RRID:CVCL_1565), NCI-H1417 (CRL-5869, RRID:CVCL_1469), and NCI-H196 small cell lung carcinoma (CRL-5823, RRID:CVCL_1509). Dr. Peter Houghton (Greehey Children's Cancer Research Institute, University of Texas Health Science Center, San Antonio, TX) provided Rh-18 rhabdomyosarcoma (RRID:CVCL_1659). Pooled donor human umbilical vein endothelial cells (HUVEC, Lonza, cat. CC-2519) and human mesenchymal stem cells (hMSC, Lonza, cat. PT-2501) were purchased from Lonza (Walkersville, MD).
Cell Culture. […]

[1] = second compound 0.00949 µM, first compound 0.0316 µM
[2] = second compound 0.00949 µM, first compound 0.1 µM
[3] = second compound 0.03 µM, first compound 0.0316 µM
[4] = second compound 0.03 µM, first compound 0.1 µM
[5] = second compound 0.0949 µM, first compound 0.0316 µM
[6] = second compound 0.0949 µM, first compound 0.1 µM
[7] = second compound 0.3 µM, first compound 0.0316 µM
[8] = second compound 0.3 µM, first compound 0.1 µM
[9] = second compound 0.949 µM, first compound 0.0316 µM
[10] = second compound 0.949 µM, first compound 0.1 µM
[11] = second compound 3 µM, first compound 0.0316 µM
[12] = second compound 3 µM, first compound 0.1 µM
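Further: spheroids exposed to compounds for 7 days.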

In the case of Cn1ncnc1[C@H]1c2n[nH]c(=O)c3cc(F)cc(c23)N[C@@H]1c1ccc(F)cc1 + CCN1C(C(=O)NC23CCC(C(=O)O)(CC2)CC3)C(c2cccc(Cl)c2F)C2(C(=O)Nc3cc(Cl)ccc32)C12CCCCC2, the IC50 (second compound 0.00949 µM) is reported as over 0.1 µM, the IC50 (second compound 0.03 µM) is reported as over 0.1 µM and the IC50 (second compound 0.0949 µM) is reported as over 0.1 µM. The IC50 (second compound 0.3 µM) was over 0.1 µM, the IC50 (second compound 0.949 µM) was over 0.1 µM and the IC50 (second compound 3 µM) was over 0.1 µM. For the same compound, the viability, T/C (second compound 0.00949 µM, first compound 0.000316 µM) was 109%, the viability, T/C (second compound 0.00949 µM, first compound 0.001 µM) was 94.8% and the viability, T/C (second compound 0.00949 µM, first compound 0.00316 µM) was 96.6%. It also gave a viability, T/C (second compound 0.00949 µM, first compound 0.01 µM) of 91.8%, a viability, T/C [1] of 88.4% and a viability, T/C [2] of 81.8%. The viability, T/C (second compound 0.03 µM, first compound 0.000316 µM) was 103%, the viability, T/C (second compound 0.03 µM, first compound 0.001 µM) was 98.1% and the viability, T/C (second compound 0.03 µM, first compound 0.00316 µM) was 100%. For the same compound, the viability, T/C (second compound 0.03 µM, first compound 0.01 µM) was 105%, the viability, T/C [3] was 90.1% and the viability, T/C [4] was 81.1%. For the same compound, the viability, T/C (second compound 0.0949 µM, first compound 0.000316 µM) was 104%, the viability, T/C (second compound 0.0949 µM, first compound 0.001 µM) was 102% and the viability, T/C (second compound 0.0949 µM, first compound 0.00316 µM) was 106%. The viability, T/C (second compound 0.0949 µM, first compound 0.01 µM) was 88.7%, the viability, T/C [5] was 87.8% and the viability, T/C [6] was 78.6%. For the same compound, the viability, T/C (second compound 0.3 µM, first compound 0.000316 µM) was 104%, the viability, T/C (second compound 0.3 µM, first compound 0.001 µM) was 99.9% and the viability, T/C (second compound 0.3 µM, first compound 0.00316 µM) was 110%. For the same compound, the viability, T/C (second compound 0.3 µM, first compound 0.01 µM) was 108%, the viability, T/C [7] was 104% and the viability, T/C [8] was 87.3%. For the same compound, the viability, T/C (second compound 0.949 µM, first compound 0.000316 µM) was 102%, the viability, T/C (second compound 0.949 µM, first compound 0.001 µM) was 91.2% and the viability, T/C (second compound 0.949 µM, first compound 0.00316 µM) was 91.2%. For the same compound, the viability, T/C (second compound 0.949 µM, first compound 0.01 µM) was 92.4%, the viability, T/C [9] was 99.4% and the viability, T/C [10] was 85.5%. For the same compound, the viability, T/C (second compound 3 µM, first compound 0.000316 µM) was 76.4%, the viability, T/C (second compound 3 µM, first compound 0.001 µM) was 78.5% and the viability, T/C (second compound 3 µM, first compound 0.00316 µM) was 80.6%. For the same compound, the viability, T/C (second compound 3 µM, first compound 0.01 µM) was 70.3%, the viability, T/C [11] was 75.3% and the viability, T/C [12] was 65.7%.
O=C(c1cc(Cc2n[nH]c(=O)c3ccccc23)ccc1F)N1CCN(C(=O)C2CC2)CC1 + CCN1C(C(=O)NC23CCC(C(=O)O)(CC2)CC3)C(c2cccc(Cl)c2F)C2(C(=O)Nc3cc(Cl)ccc32)C12CCCCC2 showed an IC50 (second compound 0.00949 µM) of over 10 µM, an IC50 (second compound 0.03 µM) of over 10 µM and an IC50 (second compound 0.0949 µM) of over 10 µM. For the same compound, the IC50 (second compound 0.3 µM) was over 10 µM, the IC50 (second compound 0.949 µM) was over 10 µM and the IC50 (second compound 3 µM) was over 10 µM. The viability, T/C [1] was 101%, the viability, T/C [2] was 87.5% and the viability, T/C (second compound 0.00949 µM, first compound 0.316 µM) was 95.5%. It also gave a viability, T/C (second compound 0.00949 µM, first compound 1 µM) of 95%, a viability, T/C (second compound 0.00949 µM, first compound 3.16 µM) of 88% and a viability, T/C (second compound 0.00949 µM, first compound 10 µM) of 67.5%. It also gave a viability, T/C [3] of 101%, a viability, T/C [4] of 102% and a viability, T/C (second compound 0.03 µM, first compound 0.316 µM) of 97.6%. It also gave a viability, T/C (second compound 0.03 µM, first compound 1 µM) of 93.3%, a viability, T/C (second compound 0.03 µM, first compound 3.16 µM) of 88.4% and a viability, T/C (second compound 0.03 µM, first compound 10 µM) of 64.3%. For the same compound, the viability, T/C [5] was 101%, the viability, T/C [6] was 93% and the viability, T/C (second compound 0.0949 µM, first compound 0.316 µM) was 108%. For the same compound, the viability, T/C (second compound 0.0949 µM, first compound 1 µM) was 104%, the viability, T/C (second compound 0.0949 µM, first compound 3.16 µM) was 90.6% and the viability, T/C (second compound 0.0949 µM, first compound 10 µM) was 58.6%. For the same compound, the viability, T/C [7] was 95.8%, the viability, T/C [8] was 104% and the viability, T/C (second compound 0.3 µM, first compound 0.316 µM) was 107%. For the same compound, the viability, T/C (second compound 0.3 µM, first compound 1 µM) was 96.8%, the viability, T/C (second compound 0.3 µM, first compound 3.16 µM) was 96.9% and the viability, T/C (second compound 0.3 µM, first compound 10 µM) was 68.4%. It also gave a viability, T/C [9] of 104%, a viability, T/C [10] of 89.5% and a viability, T/C (second compound 0.949 µM, first compound 0.316 µM) of 96.3%. For the same compound, the viability, T/C (second compound 0.949 µM, first compound 1 µM) was 91.2%, the viability, T/C (second compound 0.949 µM, first compound 3.16 µM) was 75.5% and the viability, T/C (second compound 0.949 µM, first compound 10 µM) was 66.3%. It also gave a viability, T/C [11] of 75.2%, a viability, T/C [12] of 67.3% and a viability, T/C (second compound 3 µM, first compound 0.316 µM) of 74.2%. The viability, T/C (second compound 3 µM, first compound 1 µM) was 73.1%, the viability, T/C (second compound 3 µM, first compound 3.16 µM) was 72.5% and the viability, T/C (second compound 3 µM, first compound 10 µM) was 64.8%.
